Source: publication PMC9482650, “Quantitative fragmentomics allow affinity mapping of interactomes” (Nature Communications, 2022)
Square brackets hold non-standard residues; d marks the D form. Ends that are not written are not given here. Peptide text beside a SMILES is read from it. pS = N[C@@H](COP(=O)(O)O)C(=O)O

What was measured:
[1] = molecular target: T1, SNTG2 PDZ (Homo sapiens, UniProt Q9NY99); experiment: Competitive fluorescence polarization (FP) assay; format: binding; conditions: read-out: pKd FP (converted)
T1 sequence (Q9NY99 73-156 limits assumed): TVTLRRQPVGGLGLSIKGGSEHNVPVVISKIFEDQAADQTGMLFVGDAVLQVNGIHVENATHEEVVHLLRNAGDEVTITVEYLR

[2] = molecular target: T1, SNTG2 PDZ; experiment: Holdup assay; format: binding; conditions: composite holdup affinity; 0.00=below quantification threshold; read-out: COMP pKd (converted)
[3] = molecular target: T2, SYNJ2BP PDZ (Homo sapiens, UniProt P57105); experiment: Holdup assay; format: binding; conditions: composite holdup affinity; 0.00=below quantification threshold; read-out: COMP pKd (converted)
T2 sequence (P57105 13-100 limits assumed): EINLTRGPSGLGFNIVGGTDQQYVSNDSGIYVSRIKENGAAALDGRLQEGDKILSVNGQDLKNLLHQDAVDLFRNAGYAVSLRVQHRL

[4] = tested on: HeLa cell extract preys; experiment: PDZ-AP-MS, biotinylated MBP-PDZ baits; format: binding, human; conditions: PDZ-AP-MS fold change of the PBM-protein prey
In short: (§1)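 Biotinylated His6-AviTag-MBP-PDZ baits, or MBP alone, saturated streptavidin resin and were then biotin-blocked. Each was incubated with 1 mg cell lysate for 2 h at 4 °C, washed, and eluted in 8 M urea. Eluates were digested with Lys-C/trypsin, run by nanoLC-MS/MS on an Orbitrap Elite (top20 CID) and searched against human SwissProt.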

[5] = tested on: HaCat cell extract preys; experiment: PDZ-AP-MS, biotinylated MBP-PDZ baits; format: binding, human
In short: as §1

[6] = tested on: Jurkat cell extract preys; experiment: PDZ-AP-MS, biotinylated MBP-PDZ baits; format: binding, human
In short: as §1

[7] = molecular target: DLG1_1/2; conditions: SPR; ref Kim et al 1998; cited from earlier work
Source text: Supplement 41467_2022_33018_MOESM4_ESM.xlsx, sheet "reference DMI interactome" | column: Affinity (mM); pKd, measured in literature

[8] = molecular target: DLG1_1 PDZ (Homo sapiens, UniProt Q12959); experiment: Holdup assay; format: binding; conditions: PBM motif of the named protein vs DLG1_1 PDZ; read-out: pKd values – domain-motif, DLG1_1 (converted)
[9] = molecular target: T3, TX1BP3 PDZ (Homo sapiens, UniProt O14907); experiment: Holdup assay; format: binding; conditions: PBM motif of the named protein vs TX1BP3 PDZ; read-out: pKd values – domain-motif, TX1BP3 (converted)
T3 sequence (O14907 15-112 limits assumed): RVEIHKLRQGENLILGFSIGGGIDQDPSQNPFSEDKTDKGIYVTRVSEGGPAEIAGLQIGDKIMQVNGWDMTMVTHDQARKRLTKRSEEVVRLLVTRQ

[10] = molecular target: T4, SCRIB2 PDZ (Homo sapiens, UniProt Q14160); experiment: Holdup assay; format: binding; conditions: PBM motif of the named protein vs SCRIB_2 PDZ; read-out: pKd values – domain-motif, SCRIB_2 (converted)
T4 sequence (Q14160 862-950 limits assumed): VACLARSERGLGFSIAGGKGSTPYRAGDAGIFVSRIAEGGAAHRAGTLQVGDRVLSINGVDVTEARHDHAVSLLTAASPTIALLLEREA

[11] = molecular target: SCRIB_1 PDZ (Homo sapiens, UniProt Q14160); experiment: Holdup assay; format: binding; conditions: PBM motif of the named protein vs SCRIB_1 PDZ; read-out: pKd values – domain-motif, SCRIB_1 (converted)
[12] = molecular target: DLG1_2 PDZ (Homo sapiens, UniProt Q12959); experiment: Holdup assay; format: binding; conditions: PBM motif of the named protein vs DLG1_2 PDZ; read-out: pKd values – domain-motif, DLG1_2 (converted)
[13] = molecular target: SNX27 PDZ (Homo sapiens, UniProt Q96L92); experiment: Holdup assay; format: binding
[14] = PDZ-AP-MS fold change of the PBM-protein prey, bait MBP-PDZ DLG1_1
[15] = PDZ-AP-MS fold change of the PBM-protein prey, bait MBP-PDZ DLG1_2
[16] = PDZ-AP-MS fold change of the PBM-protein prey, bait MBP-PDZ SCRIB_1
[17] = PDZ-AP-MS fold change of the PBM-protein prey, bait MBP-PDZ SCRIB_2
[18] = PDZ-AP-MS fold change of the PBM-protein prey, bait MBP-PDZ SNX27
[19] = PDZ-AP-MS fold change of the PBM-protein prey, bait MBP-PDZ TX1BP3
[20] = bait DLG1_1 PDZ, fold change of prey
[21] = bait DLG1_2 PDZ, fold change of prey
[22] = bait SCRIB_1 PDZ, fold change of prey
[23] = bait SCRIB_2 PDZ, fold change of prey
[24] = bait SNX27 PDZ, fold change of prey
[25] = bait TX1BP3 PDZ, fold change of prey

Chain of SCRIB_1 PDZ (Q14160 728-815 limits assumed): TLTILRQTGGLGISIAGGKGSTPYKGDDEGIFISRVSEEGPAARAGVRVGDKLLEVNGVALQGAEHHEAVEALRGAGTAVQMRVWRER

CC[C@H](C)[C@H](NC(=O)[C@H](CCC(N)=O)NC(=O)[C@@H](NC(=O)[C@H](Cc1c[nH]cn1)NC(=O)[C@H](CCC(N)=O)NC(=O)[C@H](CC(=O)O)NC(=O)[C@H](CCC(=O)O)NC(=O)[C@H](CC(=O)O)NC(=O)CCC(=O)NCCCOCCOCCOCCCNC(=O)CCCC[C@@H]1SC[C@@H]2NC(=O)N[C@@H]21)[C@@H](C)O)C(=O)N[C@H](C(=O)N[C@@H](CCCCNC(C)=O)C(=O)N[C@H](C(=O)O)C(C)C)[C@@H](C)O [PTEN_Ac]
Kd [1]: 377 µM
Kd [2]: 166 µM

CC(C)C[C@H](NC(=O)[C@@H](NC(=O)[C@@H](NC(=O)[C@H](COP(=O)(O)O)NC(=O)[C@@H]1CCCN1C(=O)[C@H](CC(C)C)NC(=O)[C@H](CCCCN)NC(=O)[C@H](CCCNC(=N)N)NC(=O)[C@@H](NC(=O)[C@@H](N)CCCNC(=N)N)C(C)C)[C@@H](C)O)[C@@H](C)O)C(=O)O [p-3 phosphorylated RPS6KA1] (H-RVRKLP[pS]TTL-OH)
Kd [3]: 33.1 µM

RVRKLPSTTL [RPS6KA1]
Kd [3]: 151 µM

SSLQSLETSV-OH [ATP2B4]
Fold changes, HeLa, DLG1_1 ([4]; bait MBP-PDZ DLG1_1): 1.011
Fold changes, HeLa, DLG1_2 ([4]; bait MBP-PDZ DLG1_2): 4.653
Fold changes, HeLa, SCRIB_1 ([4]; bait MBP-PDZ SCRIB_1): 16.1327
Fold changes, HeLa, SCRIB_2 ([4]; bait MBP-PDZ SCRIB_2): 1.595
Fold changes, HeLa, SNX27 ([4]; bait MBP-PDZ SNX27): 14.9763
Fold changes, HeLa, TX1BP3 ([4]; bait MBP-PDZ TX1BP3): 0.7931
Fold changes, HaCat, DLG1_1 [5, 14]: 6.858
Fold changes, HaCat, DLG1_2 [5, 15]: 9.323
Fold changes, HaCat, SCRIB_1 [5, 16]: 1.193
Fold changes, HaCat, SCRIB_2 [5, 17]: 2.996
Fold changes, HaCat, SNX27 [5, 18]: 25.0597
Fold changes, HaCat, TX1BP3 [5, 19]: 1.007
Ratio DLG1_1/MBP [5, 20]: 6.858
Ratio DLG1_2/MBP [5, 21]: 9.323
Ratio SCRIB_1/MBP [5, 22]: 1.193
Ratio SCRIB_2/MBP [5, 23]: 2.996
Ratio SNX27/MBP [5, 24]: 25.0597
Ratio TX1BP3/MBP [5, 25]: 1.007
Fold changes, Jurkat, DLG1_1 [6, 14]: 3.92
Fold changes, Jurkat, DLG1_2 [6, 15]: 17.9481
Fold changes, Jurkat, SCRIB_1 [6, 16]: 13.9686
Fold changes, Jurkat, SCRIB_2 [6, 17]: 1.428
Fold changes, Jurkat, SNX27 [6, 18]: 34.2386
Fold changes, Jurkat, TX1BP3 [6, 19]: 1.643
Ratio DLG1_1/MBP [6, 20]: 3.92
Difference log2 ([6]; bait DLG1_2 PDZ vs MBP, enrichment of prey): 4.166
Ratio DLG1_2/MBP [6, 21]: 17.9481
Ratio SCRIB_1/MBP [6, 22]: 13.9686
Ratio SCRIB_2/MBP [6, 23]: 1.428
Ratio SNX27/MBP [6, 24]: 34.2386
Ratio TX1BP3/MBP [6, 25]: 1.643
pKd, measured in literature [7]: 8.785

VLRLQSETSV [VANGL1]
Kd [8]: 35.5 µM
Kd [9]: 61.7 µM
Kd [10]: 19.1 µM
Kd [11]: 2.95 µM
Kd [12]: 13.8 µM
Kd [13]: 2 µM
